The target in this data set is T1, Cytochrome P450 11B1, mitochondrial (Homo sapiens, UniProt P15538).
T1 sequence (P15538 whole entry): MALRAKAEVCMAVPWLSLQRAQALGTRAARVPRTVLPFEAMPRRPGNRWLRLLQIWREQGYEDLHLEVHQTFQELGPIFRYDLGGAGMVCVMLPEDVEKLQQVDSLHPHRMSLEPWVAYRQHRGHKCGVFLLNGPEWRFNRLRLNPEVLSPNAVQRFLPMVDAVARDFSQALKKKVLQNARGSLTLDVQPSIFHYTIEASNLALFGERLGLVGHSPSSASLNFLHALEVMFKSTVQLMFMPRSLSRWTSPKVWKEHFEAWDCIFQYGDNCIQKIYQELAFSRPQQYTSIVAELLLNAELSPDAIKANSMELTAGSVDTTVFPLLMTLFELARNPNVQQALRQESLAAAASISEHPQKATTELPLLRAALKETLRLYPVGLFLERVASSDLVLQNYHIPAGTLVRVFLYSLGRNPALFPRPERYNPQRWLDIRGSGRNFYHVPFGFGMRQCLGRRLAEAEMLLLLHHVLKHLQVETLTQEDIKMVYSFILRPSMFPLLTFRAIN
In words: Inhibition of human CYP11B1 expressed in V79 MZh cells using [14C]-deoxycorticosterone substrate incubated for 6 hrs by HPTLC method.

In the case of `Cc1nnc2n1-c1c(F)cc(-c3cncc(F)c3)cc1CC2`, the IC50 was found to be 29.5 µM.

Values taken from BindingDB's records for doi:10.1021/acs.jmedchem.5b00079 (Saarland University and Helmholtz Institute For …, 2015).
